# How the values were obtained:
# yellow nutsedge = assay: Test C pre-/postemergence herbicide test; format: in vivo, Cyperus esculentus; details: for Nutsedge, Yellow plant response rating: Preemergence, scale 0 to 100, 0 no effect, 100 complete control
# Outline: (§1)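 Preemergence: seeds planted and treated with compound in non-phytotoxic solvent with surfactant; postemergence: plants at 2 to 18 cm (1- to 4-leaf stage) sprayed likewise. Kept in greenhouse 12 to 14 days, then visually rated against controls, 0 (no effect) to 100 (complete control).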
# Surinam grass = assay: Test B pre-/postemergence herbicide test; format: in vivo, Urochloa decumbens
# Outline: (§2)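 Herbicidal effect was judged by eye on a 0–100 scale after plants stood 13 to 15 days in the greenhouse following pre- or postemergence treatment with surfactant-containing formulations.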
# large crabgrass [1] = assay: Test C pre-/postemergence herbicide test; format: in vivo, Digitaria sanguinalis; details: for Crabgrass, Large plant response rating: Preemergence, scale 0 to 100, 0 no effect, 100 complete control
# Outline: as §1
# large crabgrass [2] = assay: Test B pre-/postemergence herbicide test; format: in vivo, Digitaria sanguinalis
# Outline: as §2
# rice = assay: Test B pre-/postemergence herbicide test; format: in vivo, Oryza sativa; details: preemergence
# Outline: as §2
# morningglory = assay: Test C pre-/postemergence herbicide test; format: in vivo, Ipomoea coccinea; set-up: key to Plant response rating, Morningglory: 0 = no effect, 100 = complete control; details: for Morningglory plant response rating: Preemergence, scale 0 to 100, 0 no effect, 100 complete control
# Outline: as §1
# eastern black nightshade = assay: Test C pre-/postemergence herbicide test; format: in vivo, Solanum ptycanthum; details: for Nightshade plant response rating: Preemergence, scale 0 to 100, 0 no effect, 100 complete control
# Outline: as §1
# johnsongrass = assay: Test C pre-/postemergence herbicide test; format: in vivo, Sorghum halepense; details: for Johnsongrass plant response rating: Preemergence, scale 0 to 100, 0 no effect, 100 complete control
# Outline: as §1
# cocklebur = assay: Test C pre-/postemergence herbicide test; format: in vivo, Xanthium strumarium; details: for Cocklebur plant response rating: Preemergence, 500 g ai/ha, scale 0 to 100, 0 no effect, 100 complete control
# Outline: as §1
# [3] = 125 g ai/ha, scale 0 (no effect) to 100 (complete control), visual, 12 to 14 days, preemergence
# [4] = 250 g ai/ha, scale 0 to 100 (0 no effect, 100 complete control), visual, 12 to 14 days, preemergence
# [5] = postemergence, 125 g ai/ha; visual rating, scale 0 (no effect) to 100 (complete control)
# [6] = preemergence, 125 g ai/ha; 0 to 100 scale, 0 is no effect, 100 is complete control
# [7] = postemergence, 125 g ai/ha, visual rating, scale 0 (no effect) to 100 (complete control)
# [8] = preemergence, 125 g ai/ha, 0 to 100 scale, 0 is no effect, 100 is complete control
# [9] = 125 g ai/ha, 0 to 100 scale, 0 is no effect, 100 is complete control
# [10] = 62 g ai/ha, preemergence, scale 0 to 100
# [11] = 250 g ai/ha, scale 0-100, preemergence
# [12] = 500 g ai/ha, scale 0 to 100 (0 no effect, 100 complete control), visual, 12 to 14 days, preemergence
# [13] = 500 g ai/ha; visual rating 0-100, 0 no effect, 100 complete control; preemergence
# [14] = postemergence, 500 g ai/ha; visual rating, scale 0 (no effect) to 100 (complete control)
# [15] = 500 g ai/ha, visual rating 0-100, 0 no effect, 100 complete control, preemergence
# [16] = postemergence, 500 g ai/ha, visual rating, scale 0 (no effect) to 100 (complete control)
# [17] = 500 g ai/ha, visual rating 0-100, 0 no effect, 100 complete control
compound,measurement,setting,value
CCn1nc(C(C)(C)C)cc1C(=O)Nc1cccc(C(=O)NCC(C)C)c1 [Compound 61],"Plant response rating (0 = no effect, 100 = complete control), Nutsedge, Yellow","yellow nutsedge; 62 g ai/ha, preemergence",0
same,"Plant response rating, Nutsedge, Yellow",yellow nutsedge; [3],0
same,"Plant response rating, Nutsedge, Yellow",yellow nutsedge; [4],10
same,"Nutsedge, Yellow plant response rating",yellow nutsedge; 500 g ai/ha,30
same,"Plant response rating, Surinam Grass","Surinam grass; Postemergence, 500 g ai/ha; visual rating after 13 to 15 days, scale 0 (no effect) to 100 (complete control)",30
same,Surinam Grass plant response rating,Surinam grass; [5],20
same,"Plant response rating, Surinam Grass",Surinam grass; [6],10
same,"Plant response rating (0 = no effect, 100 = complete control), Crabgrass, Large","large crabgrass [1]; 62 g ai/ha, preemergence",50
same,"Plant response rating, Crabgrass, Large",large crabgrass [1]; [3],75
same,"Plant response rating, Crabgrass, Large",large crabgrass [1]; [4],100
same,"Crabgrass, Large plant response rating",large crabgrass [1]; 500 g ai/ha,100
same,"Plant response rating, Crabgrass, Large","large crabgrass [2]; Postemergence, 500 g ai/ha, visual rating after 13 to 15 days, scale 0 (no effect) to 100 (complete control)",30
same,"Crabgrass, Large plant response rating","large crabgrass [2]; Preemergence, 500 g ai/ha, scale 0 to 100",100
same,"Crabgrass, Large plant response rating",large crabgrass [2]; [7],20
same,"Plant response rating, Crabgrass, Large",large crabgrass [2]; [8],50
same,"Plant response rating, Rice",rice; [9],0
same,"Plant response rating (0 = no effect, 100 = complete control), Morningglory","morningglory; 62 g ai/ha, preemergence",0
same,"Plant response rating, Morningglory",morningglory; [3],0
same,"Plant response rating, Morningglory",morningglory; [4],5
same,Morningglory plant response rating,morningglory; 500 g ai/ha,100
same,"Plant response rating (0 = no effect, 100 = complete control), Nightshade","eastern black nightshade; 62 g ai/ha, preemergence",0
same,"Plant response rating, Nightshade",eastern black nightshade; [3],20
same,"Plant response rating, Nightshade",eastern black nightshade; [4],40
same,Nightshade plant response rating,eastern black nightshade; 500 g ai/ha,90
same,"Plant response rating (0 = no effect, 100 = complete control), Johnsongrass","johnsongrass; 62 g ai/ha, preemergence",10
same,"Plant response rating, Johnsongrass",johnsongrass; [3],30
same,"Plant response rating, Johnsongrass",johnsongrass; [4],50
same,Johnsongrass plant response rating,johnsongrass; 500 g ai/ha,60
same,"Plant response rating (0 = no effect, 100 = complete control), Cocklebur","cocklebur; 62 g ai/ha, preemergence",0
same,"Plant response rating, Cocklebur",cocklebur; [3],0
same,Cocklebur plant response rating,cocklebur,0
CCN(CC)C(=O)c1cccc(NC(=O)c2cc(C(C)(C)C)nn2C)n1 [Compound 314],"Plant response rating, Nutsedge, Yellow",yellow nutsedge; [10],0
same,"Plant response rating, Nutsedge, Yellow",yellow nutsedge; [3],0
same,"Plant response rating, Nutsedge, Yellow",yellow nutsedge; [11],0
same,"Plant response rating, Nutsedge, Yellow",yellow nutsedge; [12],0
same,"Plant response rating (0 to 100 scale), Surinam Grass","Surinam grass; 125 g ai/ha; 0 is no effect, 100 is complete control; preemergence",20
same,Surinam Grass plant response rating,"Surinam grass; 125 g ai/ha; visual rating, scale 0 (no effect) to 100 (complete control); postemergence",20
same,"Plant response rating, Surinam Grass","Surinam grass; 500 g ai/ha; visual rating, 0 = no effect, 100 = complete control; preemergence",80
same,Surinam Grass plant response rating,"Surinam grass; postemergence, 500 g ai/ha; scale 0 to 100, 0 is no effect, 100 is complete control",20
same,"Plant response rating, Crabgrass, Large",large crabgrass [1]; [10],0
same,"Plant response rating, Crabgrass, Large",large crabgrass [1]; [3],0
same,"Plant response rating, Crabgrass, Large",large crabgrass [1]; [11],40
same,"Plant response rating, Crabgrass, Large",large crabgrass [1]; [12],60
same,"Plant response rating (0 to 100 scale), Crabgrass, Large","large crabgrass [2]; 125 g ai/ha, 0 is no effect, 100 is complete control, preemergence",20
same,"Crabgrass, Large plant response rating","large crabgrass [2]; 125 g ai/ha, visual rating, scale 0 (no effect) to 100 (complete control), postemergence",10
same,"Plant response rating, Crabgrass, Large","large crabgrass [2]; 500 g ai/ha, visual rating, 0 = no effect, 100 = complete control, preemergence",30
same,"Crabgrass, Large plant response rating","large crabgrass [2]; postemergence, 500 g ai/ha, scale 0 to 100, 0 is no effect, 100 is complete control",20
same,"Plant response rating (0 to 100 scale), Rice","rice; 125 g ai/ha, 0 is no effect, 100 is complete control",0
same,"Plant response rating, Rice","rice; 500 g ai/ha, visual rating, 0 = no effect, 100 = complete control",10
same,"Plant response rating, Morningglory",morningglory; [10],0
same,"Plant response rating, Morningglory",morningglory; [3],10
same,"Plant response rating, Morningglory",morningglory; [11],30
same,"Plant response rating, Morningglory",morningglory; [12],40
same,"Plant response rating, Nightshade",eastern black nightshade; [10],60
same,"Plant response rating, Nightshade",eastern black nightshade; [3],85
same,"Plant response rating, Nightshade",eastern black nightshade; [11],90
same,"Plant response rating, Nightshade",eastern black nightshade; [12],100
same,"Plant response rating, Johnsongrass",johnsongrass; [10],0
same,"Plant response rating, Johnsongrass",johnsongrass; [3],20
same,"Plant response rating, Johnsongrass",johnsongrass; [11],70
same,"Plant response rating, Johnsongrass",johnsongrass; [12],90
same,"Plant response rating, Cocklebur",cocklebur; [10],0
same,"Plant response rating, Cocklebur",cocklebur; [3],0
same,"Plant response rating, Cocklebur",cocklebur; [11],0
same,Cocklebur plant response rating,cocklebur,20
CCc1nc(C(C)(C)C)sc1C(=O)Nc1cccc(C(=O)N(CC)CC)c1 [Compound 205],"Plant response rating, Nutsedge, Yellow",yellow nutsedge; [10],0
same,"Plant response rating, Nutsedge, Yellow",yellow nutsedge; [3],0
same,"Plant response rating, Nutsedge, Yellow",yellow nutsedge; [11],0
same,"Nutsedge, Yellow plant response rating",yellow nutsedge; 500 g ai/ha,10
same,Surinam Grass plant response rating (0 to 100 scale),"Surinam grass; 125 g ai/ha; 0 = no effect, 100 = complete control; preemergence",20
same,"Plant response rating, Surinam Grass",Surinam grass; [13],80
same,Surinam Grass plant response rating,Surinam grass; [5],20
same,Surinam Grass plant response rating,Surinam grass; [14],20
same,"Plant response rating, Crabgrass, Large",large crabgrass [1]; [10],60
same,"Plant response rating, Crabgrass, Large",large crabgrass [1]; [3],80
same,"Plant response rating, Crabgrass, Large",large crabgrass [1]; [11],100
same,"Crabgrass, Large plant response rating",large crabgrass [1]; 500 g ai/ha,100
same,"Crabgrass, Large plant response rating (0 to 100 scale)","large crabgrass [2]; 125 g ai/ha, 0 = no effect, 100 = complete control, preemergence",60
same,"Plant response rating, Crabgrass, Large",large crabgrass [2]; [15],90
same,"Crabgrass, Large plant response rating",large crabgrass [2]; [7],10
same,"Crabgrass, Large plant response rating",large crabgrass [2]; [16],20
same,Rice plant response rating (0 to 100 scale),"rice; 125 g ai/ha, 0 = no effect, 100 = complete control",10
same,"Plant response rating, Rice",rice; [17],70
same,"Plant response rating, Morningglory",morningglory; [10],0
same,"Plant response rating, Morningglory",morningglory; [3],0
same,"Plant response rating, Morningglory",morningglory; [11],10
same,Morningglory plant response rating,morningglory; 500 g ai/ha,50
same,"Plant response rating, Nightshade",eastern black nightshade; [10],80
same,"Plant response rating, Nightshade",eastern black nightshade; [3],100
same,"Plant response rating, Nightshade",eastern black nightshade; [11],100
same,Nightshade plant response rating,eastern black nightshade; 500 g ai/ha,100
same,"Plant response rating, Johnsongrass",johnsongrass; [10],0
same,"Plant response rating, Johnsongrass",johnsongrass; [3],10
same,"Plant response rating, Johnsongrass",johnsongrass; [11],60
same,Johnsongrass plant response rating,johnsongrass; 500 g ai/ha,85
same,"Plant response rating, Cocklebur",cocklebur; [10],0
same,"Plant response rating, Cocklebur",cocklebur; [3],0
same,"Plant response rating, Cocklebur",cocklebur; [11],0
same,Cocklebur plant response rating,cocklebur,0
CCN(CC)C(=O)c1ccnc(NC(=O)c2cc(C(C)(C)C)nn2CC)c1 [Compound 153],"Plant response rating, Nutsedge, Yellow",yellow nutsedge; [10],0
same,"Plant response rating, Nutsedge, Yellow",yellow nutsedge; [3],0
same,"Nutsedge, Yellow plant response rating",yellow nutsedge; 500 g ai/ha,45
same,"Plant response rating, Surinam Grass",Surinam grass; [13],70
same,Surinam Grass plant response rating,Surinam grass; [5],30
same,Surinam Grass plant response rating,Surinam grass; [14],30
same,"Plant response rating, Surinam Grass",Surinam grass; [6],10
same,"Plant response rating, Crabgrass, Large",large crabgrass [1]; [10],0
same,"Plant response rating, Crabgrass, Large",large crabgrass [1]; [3],0
same,"Plant response rating, Crabgrass, Large",large crabgrass [1]; [4],0
same,"Crabgrass, Large plant response rating",large crabgrass [1]; 500 g ai/ha,80
same,"Plant response rating, Crabgrass, Large",large crabgrass [2]; [15],80
same,"Crabgrass, Large plant response rating",large crabgrass [2]; [7],10
same,"Crabgrass, Large plant response rating",large crabgrass [2]; [16],20
same,"Plant response rating, Crabgrass, Large",large crabgrass [2]; [8],50
same,"Plant response rating, Rice",rice; [17],20
same,"Plant response rating, Rice",rice; [9],10
same,"Plant response rating, Morningglory",morningglory; [10],0
same,"Plant response rating, Morningglory",morningglory; [3],0
same,Morningglory plant response rating,morningglory; 500 g ai/ha,15
same,"Plant response rating, Nightshade",eastern black nightshade; [10],90
same,"Plant response rating, Nightshade",eastern black nightshade; [3],100
same,Nightshade plant response rating,eastern black nightshade; 500 g ai/ha,100
same,"Plant response rating, Johnsongrass",johnsongrass; [10],0
same,"Plant response rating, Johnsongrass",johnsongrass; [3],15
same,Johnsongrass plant response rating,johnsongrass; 500 g ai/ha,85
same,"Plant response rating, Cocklebur",cocklebur; [10],0
same,"Plant response rating, Cocklebur",cocklebur; [3],0
same,"Plant response rating, Cocklebur",cocklebur; [4],0
same,Cocklebur plant response rating,cocklebur,0

# Source: US20060069132A1, “Azolecarboxamide herbicides” (priority 2004, published 2006)
